Results as given in patent EP0376518B1, “Phospholipid nucleosides” (ELI LILLY AND COMPANY, priority 1988, dated 1990).

Experiments:
Type in all cases: in vivo
M-5 ovarian carcinoma [1] = experiment: Test 1: M-5 ovarian carcinoma in mice, single dose; settings: single dose two days after inoculation; for Toxicity (number of animals which exhibited signs of toxicity): group of 10 mice; for Inhibition (percent inhibition of tumor growth): tumors measured 13 days after inoculation
Source text: (§1) Representative compounds of the invention have been tested using murine tumors in female mice to determine their antineoplastic efficacy. Several different tumor systems have been used in these tests, and the compounds have been administered on a number of different dosage schedules. In general, all the tests were started by inoculating female mice with the tumor, subcutaneously. After some number of days delay, intraperitoneal administration of the test compound was begun. Each treatment group consisted of 10 mice, and untreated control groups were included in all experiments. At the completion of the treatment period, the tumors of the control and the treated mice were measured and the mass of them calculated from the measurements. The data are reported here as percent inhibition of tumor growth, based on the tumors of the untreated control mice.
The tumor in this test was M-5 ovarian carcinoma; the compounds were administered as a single dose, two days after inoculation, and the tumors were measured 13 days after inoculation.

M-5 ovarian carcinoma [2] = experiment: Test 2: M-5 ovarian carcinoma in mice, three doses; settings: for Toxicity (number of animals which exhibited signs of toxicity): group of 10 mice; for Inhibition (percent inhibition of tumor growth): tumors measured day 15
Source text: as §1
The compound of Example 2 was tested against M-5 ovarian carcinoma. Three doses were administered on days 5, 10 and 13 after inoculation, and the tumors were measured on day 15.

M-5 ovarian carcinoma [3] = experiment: Test 3: M-5 ovarian carcinoma in mice, daily dose; settings: for Toxicity (number of animals which exhibited signs of toxicity): group of 10 mice; for Inhibition (percent inhibition of tumor growth): tumors measured day 15
Source text: as §1
The compound of Example 2 was tested against M-5 ovarian carcinoma, giving a daily dose from day 5 to day 14 after inoculation. The tumors were measured on day 15.

6C3HED lymphosarcoma = experiment: Test 4: 6C3HED lymphosarcoma in mice; settings: for Toxicity (number of animals which exhibited signs of toxicity): group of 10 mice; for Inhibition (percent inhibition of tumor growth): tumors measured day 10
Source text: as §1
The compound of Example 2 was tested against 6C3HED lymphosarcoma, giving a dose on days 1, 5 and 9 after inoculation, and measuring the tumors on day 10.

colon carcinoma 26 = experiment: Test 5: colon carcinoma 26 in mice; settings: for Toxicity (number of animals which exhibited signs of toxicity): group of 10 mice; for Inhibition (percent inhibition of tumor growth): tumors measured day 13
Source text: as §1
The compound of Example 2 was tested against colon carcinoma 26, giving doses on days 3, 8 and 11 after inoculation, and measuring the tumors on day 13.

[4] = system: X-5563 plasma cell myeloma; experiment: Test 6: X-5563 plasma cell myeloma in mice; settings: for Toxicity (number of animals which exhibited signs of toxicity): group of 10 mice; for Inhibition (percent inhibition of tumor growth): tumors measured day 11
Source text: as §1
The compound of Example 2 was tested against X-5563 plasma cell myeloma, giving doses on days 1, 5 and 9 after inoculation and measuring the tumors on day 11.

[5] = system: C3H mammary adenocarcinoma; experiment: Test 7: C3H mammary adenocarcinoma in mice; settings: for Toxicity (number of animals which exhibited signs of toxicity): group of 10 mice; for Inhibition (percent inhibition of tumor growth): tumors measured day 11
Source text: as §1
The compound of Example 2 was tested against C3H mammary adenocarcinoma, giving does on days 1, 5 and 9 after inoculation and measuring the tumors on day 11.

Madison lung carcinoma = experiment: Test 8: Madison lung carcinoma in mice; settings: for Toxicity (number of animals which exhibited signs of toxicity): group of 10 mice; for Inhibition (percent inhibition of tumor growth): tumors measured day 11
Source text: as §1
The compound of Example 2 was tested against Madison lung carcinoma, giving doses on days 1, 5 and 9 after inoculation and measuring the tumors on day 11.

Lewis lung carcinoma = experiment: Test 9: Lewis lung carcinoma in mice; settings: for Toxicity (number of animals which exhibited signs of toxicity): group of 10 mice; for Inhibition (percent inhibition of tumor growth): tumors measured day 11
Source text: as §1
The compound of Example 2 was tested against Lewis lung carcinoma, giving doses on days 1, 5 and 9 after inoculation and measuring the tumors on day 11.

[6] = 1.8 mg/kg intraperitoneal on days 5, 10 and 13 after inoculation
[7] = 3.8 mg/kg intraperitoneal on days 5, 10 and 13 after inoculation
[8] = 7.5 mg/kg intraperitoneal on days 5, 10 and 13 after inoculation
[9] = 15 mg/kg intraperitoneal on days 5, 10 and 13 after inoculation
[10] = 30 mg/kg intraperitoneal on days 5, 10 and 13 after inoculation
[11] = 0.6 mg/kg intraperitoneal daily from day 5 to day 14 after inoculation
[12] = 1.2 mg/kg intraperitoneal daily from day 5 to day 14 after inoculation
[13] = 2.5 mg/kg intraperitoneal daily from day 5 to day 14 after inoculation
[14] = 5 mg/kg intraperitoneal daily from day 5 to day 14 after inoculation
[15] = 1.8 mg/kg intraperitoneal on days 1, 5 and 9 after inoculation
[16] = 3.8 mg/kg intraperitoneal on days 1, 5 and 9 after inoculation
[17] = 7.5 mg/kg intraperitoneal on days 1, 5 and 9 after inoculation
[18] = 15 mg/kg intraperitoneal on days 1, 5 and 9 after inoculation
[19] = 30 mg/kg intraperitoneal on days 1, 5 and 9 after inoculation
[20] = 1.8 mg/kg intraperitoneal on days 3, 8 and 11 after inoculation
[21] = 3.8 mg/kg intraperitoneal on days 3, 8 and 11 after inoculation
[22] = 7.5 mg/kg intraperitoneal on days 3, 8 and 11 after inoculation
[23] = 15 mg/kg intraperitoneal on days 3, 8 and 11 after inoculation
[24] = 30 mg/kg intraperitoneal on days 3, 8 and 11 after inoculation

`CCCCCCCCCCCCCCCC(=O)OC[C@H](COP(=O)(O)OP(=O)(O)OC[C@H]1O[C@@H](n2ccc(N)nc2=O)C(F)(F)[C@@H]1O)OC(=O)CCCCCCCCCCCCCCC` [Example 2] was tested, and the “Toxicity (number of animals which exhibited signs of toxicity)” value (from here on “Toxicity”) (M-5 ovarian carcinoma [1]; 25 mg/kg intraperitoneal) was 0/10, the “Inhibition (percent inhibition of tumor growth)” value (M-5 ovarian carcinoma [1]; 25 mg/kg intraperitoneal) was 72% and the “Toxicity” value (M-5 ovarian carcinoma [1]; 50 mg/kg intraperitoneal) was 4/10. The “Inhibition (percent inhibition of tumor growth)” value (M-5 ovarian carcinoma [1]; 50 mg/kg intraperitoneal) was 87%, the “Toxicity” value (M-5 ovarian carcinoma [2]; [6]) was 0/10 and the “Inhibition (percent inhibition of tumor growth)” value (M-5 ovarian carcinoma [2]; [6]) was 22%. For the same compound, the “Toxicity” value (M-5 ovarian carcinoma [2]; [7]) was 0/10, the “Inhibition (percent inhibition of tumor growth)” value (M-5 ovarian carcinoma [2]; [7]) was 55% and the “Toxicity” value (M-5 ovarian carcinoma [2]; [8]) was 0/10. The “Inhibition (percent inhibition of tumor growth)” value (M-5 ovarian carcinoma [2]; [8]) was 61%, the “Toxicity” value (M-5 ovarian carcinoma [2]; [9]) was 0/10 and the “Inhibition (percent inhibition of tumor growth)” value (M-5 ovarian carcinoma [2]; [9]) was 92%. The “Toxicity” value (M-5 ovarian carcinoma [2]; [10]) was 2/10, the “Inhibition (percent inhibition of tumor growth)” value (M-5 ovarian carcinoma [2]; [10]) was 99% and the “Toxicity” value (M-5 ovarian carcinoma [3]; [11]) was 0/10. The “Inhibition (percent inhibition of tumor growth)” value (M-5 ovarian carcinoma [3]; [11]) was 42%, the “Toxicity” value (M-5 ovarian carcinoma [3]; [12]) was 0/10 and the “Inhibition (percent inhibition of tumor growth)” value (M-5 ovarian carcinoma [3]; [12]) was 58%. For the same compound, the “Toxicity” value (M-5 ovarian carcinoma [3]; [13]) was 0/10, the “Inhibition (percent inhibition of tumor growth)” value (M-5 ovarian carcinoma [3]; [13]) was 69% and the “Toxicity” value (M-5 ovarian carcinoma [3]; [14]) was 0/10. For the same compound, the “Inhibition (percent inhibition of tumor growth)” value (M-5 ovarian carcinoma [3]; [14]) was 100%, the “Toxicity” value (M-5 ovarian carcinoma [3]; 10 mg/kg intraperitoneal daily from day 5 to day 14 after inoculation) was 10/10 and the “Toxicity” value (6C3HED lymphosarcoma; [15]) was 0/10. For the same compound, the “Inhibition (percent inhibition of tumor growth)” value (6C3HED lymphosarcoma; [15]) was 21%, the “Toxicity” value (6C3HED lymphosarcoma; [16]) was 0/10 and the “Inhibition (percent inhibition of tumor growth)” value (6C3HED lymphosarcoma; [16]) was 32%. The “Toxicity” value (6C3HED lymphosarcoma; [17]) was 0/10, the “Inhibition (percent inhibition of tumor growth)” value (6C3HED lymphosarcoma; [17]) was 47% and the “Toxicity” value (6C3HED lymphosarcoma; [18]) was 0/10. The “Inhibition (percent inhibition of tumor growth)” value (6C3HED lymphosarcoma; [18]) was 60%, the “Toxicity” value (6C3HED lymphosarcoma; [19]) was 7/10 and the “Inhibition (percent inhibition of tumor growth)” value (6C3HED lymphosarcoma; [19]) was 98%. The “Toxicity” value (colon carcinoma 26; [20]) was 0/10, the “Inhibition (percent inhibition of tumor growth)” value (colon carcinoma 26; [20]) was 0% and the “Toxicity” value (colon carcinoma 26; [21]) was 0/10. The “Inhibition (percent inhibition of tumor growth)” value (colon carcinoma 26; [21]) was 21%, the “Toxicity” value (colon carcinoma 26; [22]) was 0/10 and the “Inhibition (percent inhibition of tumor growth)” value (colon carcinoma 26; [22]) was 28%. For the same compound, the “Toxicity” value (colon carcinoma 26; [23]) was 0/10, the “Inhibition (percent inhibition of tumor growth)” value (colon carcinoma 26; [23]) was 66% and the “Toxicity” value (colon carcinoma 26; [24]) was 8/10. For the same compound, the “Inhibition (percent inhibition of tumor growth)” value (colon carcinoma 26; [24]) was 89%, the “Toxicity” value [4, 15] was 0/10 and the “Inhibition (percent inhibition of tumor growth)” value [4, 15] was 0%. For the same compound, the “Toxicity” value [4, 16] was 0/10, the “Inhibition (percent inhibition of tumor growth)” value [4, 16] was 2% and the “Toxicity” value [4, 17] was 0/10. For the same compound, the “Inhibition (percent inhibition of tumor growth)” value [4, 17] was 68%, the “Toxicity” value [4, 18] was 1/10 and the “Inhibition (percent inhibition of tumor growth)” value [4, 18] was 84%. The “Toxicity” value [4, 19] was 9/10, the “Inhibition (percent inhibition of tumor growth)” value [4, 19] was 100% and the “Toxicity” value [5, 15] was 0/10. For the same compound, the “Inhibition (percent inhibition of tumor growth)” value [5, 15] was 0%, the “Toxicity” value [5, 16] was 0/10 and the “Inhibition (percent inhibition of tumor growth)” value [5, 16] was 0%. For the same compound, the “Toxicity” value [5, 17] was 0/10, the “Inhibition (percent inhibition of tumor growth)” value [5, 17] was 22% and the “Toxicity” value [5, 18] was 0/10. The “Inhibition (percent inhibition of tumor growth)” value [5, 18] was 60%, the “Toxicity” value [5, 19] was 6/10 and the “Inhibition (percent inhibition of tumor growth)” value [5, 19] was 100%. The “Toxicity” value (Madison lung carcinoma; [15]) was 0/10, the “Inhibition (percent inhibition of tumor growth)” value (Madison lung carcinoma; [15]) was 12% and the “Toxicity” value (Madison lung carcinoma; [16]) was 0/10. The “Inhibition (percent inhibition of tumor growth)” value (Madison lung carcinoma; [16]) was 18%, the “Toxicity” value (Madison lung carcinoma; [17]) was 0/10 and the “Inhibition (percent inhibition of tumor growth)” value (Madison lung carcinoma; [17]) was 33%. The “Toxicity” value (Madison lung carcinoma; [18]) was 0/10, the “Inhibition (percent inhibition of tumor growth)” value (Madison lung carcinoma; [18]) was 68% and the “Toxicity” value (Madison lung carcinoma; [19]) was 4/10. The “Inhibition (percent inhibition of tumor growth)” value (Madison lung carcinoma; [19]) was 76%, the “Toxicity” value (Lewis lung carcinoma; [15]) was 0/10 and the “Inhibition (percent inhibition of tumor growth)” value (Lewis lung carcinoma; [15]) was 6%. For the same compound, the “Toxicity” value (Lewis lung carcinoma; [16]) was 0/10, the “Inhibition (percent inhibition of tumor growth)” value (Lewis lung carcinoma; [16]) was 0% and the “Toxicity” value (Lewis lung carcinoma; [17]) was 0/10. For the same compound, the “Inhibition (percent inhibition of tumor growth)” value (Lewis lung carcinoma; [17]) was 0%, the “Toxicity” value (Lewis lung carcinoma; [18]) was 0/10 and the “Inhibition (percent inhibition of tumor growth)” value (Lewis lung carcinoma; [18]) was 0%. For the same compound, the “Toxicity” value (Lewis lung carcinoma; [19]) was 4/10 and the “Inhibition (percent inhibition of tumor growth)” value (Lewis lung carcinoma; [19]) was 41%.
In the case of `CCCCCCCCCCCCCCCCCCC(COP(=O)(O)OP(=O)(O)OC[C@H]1O[C@@H](n2ccc(N)nc2=O)C(F)(F)[C@@H]1O)OCC` (stereo partly drawn) [Example 3, 2′-Deoxy-2′,2′-difluorocytidine, 5′-(dihydrogen diphosphate), P′-(2-ethoxyeicosyl) ester], the “Toxicity” value (M-5 ovarian carcinoma [1]; 50 mg/kg intraperitoneal) is reported as 0/10, the “Inhibition (percent inhibition of tumor growth)” value (M-5 ovarian carcinoma [1]; 50 mg/kg intraperitoneal) is reported as 53% and the “Toxicity” value (M-5 ovarian carcinoma [1]; 100 mg/kg intraperitoneal) is reported as 0/10. For the same compound, the “Inhibition (percent inhibition of tumor growth)” value (M-5 ovarian carcinoma [1]; 100 mg/kg intraperitoneal) was 64%.
